“And” between values parts separate entries of the source, which are not always exact repeats. Equal entries are not always repeated. “Also recorded” adds a separate entry of the source. Where two headings read alike, the source gives them in different places.
Experiments:
Dm5-HT2B [1] = biological target: T1, Dm5-HT2B (Drosophila melanogaster, UniProt Q8INQ6); experiment: Ca2+ fluorimetry (Fluo-4), agonist activation of Dm5-HT2B expressed in HEK 293 cells; format: cell-based; conditions: for change in Ca2+-dependent Fluo-4 fluorescence: biogenic amines 1 μM each
T1 sequence (Q8INQ6 entry or part of it): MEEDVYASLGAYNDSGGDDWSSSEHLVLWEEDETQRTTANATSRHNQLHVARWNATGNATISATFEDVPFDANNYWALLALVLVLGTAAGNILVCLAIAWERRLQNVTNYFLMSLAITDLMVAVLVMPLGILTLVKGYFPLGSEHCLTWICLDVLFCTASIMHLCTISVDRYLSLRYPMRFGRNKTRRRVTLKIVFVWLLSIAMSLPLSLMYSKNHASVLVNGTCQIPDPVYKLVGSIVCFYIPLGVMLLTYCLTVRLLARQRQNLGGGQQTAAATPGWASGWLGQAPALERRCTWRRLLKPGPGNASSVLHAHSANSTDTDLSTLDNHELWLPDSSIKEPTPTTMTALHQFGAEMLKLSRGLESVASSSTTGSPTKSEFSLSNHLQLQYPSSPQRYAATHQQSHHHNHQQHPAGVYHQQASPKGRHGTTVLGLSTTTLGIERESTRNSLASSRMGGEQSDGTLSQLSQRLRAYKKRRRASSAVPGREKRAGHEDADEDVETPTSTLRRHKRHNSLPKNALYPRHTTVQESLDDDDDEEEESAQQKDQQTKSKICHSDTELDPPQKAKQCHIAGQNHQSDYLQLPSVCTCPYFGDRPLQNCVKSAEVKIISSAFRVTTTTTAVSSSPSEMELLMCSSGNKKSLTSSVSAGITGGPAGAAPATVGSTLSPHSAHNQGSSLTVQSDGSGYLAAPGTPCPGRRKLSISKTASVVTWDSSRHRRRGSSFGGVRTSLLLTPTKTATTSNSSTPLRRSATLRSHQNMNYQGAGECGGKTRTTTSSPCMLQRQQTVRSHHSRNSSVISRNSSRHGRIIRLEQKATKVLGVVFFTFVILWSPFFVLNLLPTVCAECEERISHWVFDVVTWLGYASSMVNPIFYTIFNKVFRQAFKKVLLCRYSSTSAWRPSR
Experimental: Stably transfected cells were selected in the presence of the antibiotic G418 (0.8 mg/ml). Isolated foci were propagated and analyzed for the expression of Dm5-HT2B-HA receptor either by immunocytochemistry, Western blotting or by functional Ca^2+ imaging upon receptor activation.
The ability of the Dm5-HT2B-HA receptor (hereafter referred to as Dm5-HT2B) to activate Gq proteins was assessed by monitoring changes in [Ca^2+]i with the Ca^2+-sensitive fluorescent dye Fluo-4 (Invitrogen). Non-transfected HEK 293 cells and cells expressing Dm5-HT2B were grown in minimal essential medium (MEM + GlutaMAX^TMI (Gibco/ThermoFisher Scientific, Darmstadt, Germany) containing 2% (w/v) Utroser^TM G (Pall, Dreieich, Germany), 1 × non-essential amino acids and 1 × antibiotics/antimycotics) in 96-well plates to a density of ∼3 × 10^4 cells per well. In this format, each vertical row (=8 wells) of the 96-well plate is incubated with the same ligand concentration. […] Plates were transferred into a fluorescence reader (FLUOstar Galaxy/Optima; BMG Labtech, Offenburg, Germany) to monitor Fluo-4 fluorescence. […] Various concentrations of biogenic amines and synthetic receptor ligands were added, once Fluo-4 fluorescence had reached a stable value in each well. The changes in Fluo-4 fluorescence were recorded automatically. Concentration-response curves for putative agonists/antagonists were established in at least two independent experiments with octuplicate determinations (s.a.) per data point.

Am5-HT2A = tested on: Am5-HT2A; parameters: method as in Thamm et al., 2013; conditions: ref Thamm et al., 2013, cited from earlier work; for EC50: Am5-HT2A in HEK 293 cells
Am5-HT2B = tested on: Am5-HT2B; parameters: method as in Thamm et al., 2013; conditions: ref Thamm et al., 2013, cited from earlier work; for EC50: Am5-HT2B in HEK 293 cells; for Ca2+-dependent fluorescence blocked to: residual signal
Cv5-HT2A = tested on: Cv5-HT2A; parameters: method as in Röser et al., 2012; conditions: ref Röser et al., 2012, cited from earlier work; for EC50: Cv5-HT2A in HEK 293 cells
Rp5-HT2B = tested on: Rp5-HT2B; parameters: method as in Paluzzi et al., 2015; conditions: ref Paluzzi et al., 2015, cited from earlier work; for receptor activity reduced by: Rp5-HT2B, highest of three concentrations tested (10^-7, 10^-6, 10^-5 M)
Dm5-HT2B [2] = biological target: T1, Dm5-HT2B; experiment: Ca2+ fluorimetry (Fluo-4), antagonists on serotonin-stimulated Dm5-HT2B-expressing HEK 293 cells; format: cell-based; conditions: for effect on serotonin-stimulated Dm5-HT2B-expressing cells: 10^-9 M to 10^-4 M antagonist on 10^-7 M serotonin; for Maximal inhibition: relative efficacy, signal with 10^-7 M serotonin = 100%
Experimental: (§1) The ability of the Dm5-HT2B-HA receptor (hereafter referred to as Dm5-HT2B) to activate Gq proteins was assessed by monitoring changes in [Ca^2+]i with the Ca^2+-sensitive fluorescent dye Fluo-4 (Invitrogen). Non-transfected HEK 293 cells and cells expressing Dm5-HT2B were grown in minimal essential medium (MEM + GlutaMAX^TMI (Gibco/ThermoFisher Scientific, Darmstadt, Germany) containing 2% (w/v) Utroser^TM G (Pall, Dreieich, Germany), 1 × non-essential amino acids and 1 × antibiotics/antimycotics) in 96-well plates to a density of ∼3 × 10^4 cells per well. In this format, each vertical row (=8 wells) of the 96-well plate is incubated with the same ligand concentration. Cells were loaded at room temperature with Fluo-4 as described earlier ([Thamm et al., 2013]; [Blankenburg et al., 2015]) in extracellular solution [ES = in mM: 120 NaCl, 5 KCl, 2 MgCl2, 2 CaCl2, 10 HEPES, 10 Glucose, pH 7.4 (NaOH)]. Plates were transferred into a fluorescence reader (FLUOstar Galaxy/Optima; BMG Labtech, Offenburg, Germany) to monitor Fluo-4 fluorescence. The excitation wavelength was 485 nm, and fluorescence emission was detected at 520 nm. Various concentrations of biogenic amines and synthetic receptor ligands were added, once Fluo-4 fluorescence had reached a stable value in each well. The changes in Fluo-4 fluorescence were recorded automatically. Concentration-response curves for putative agonists/antagonists were established in at least two independent experiments with octuplicate determinations (s.a.) per data point.
Next, we examined the ability of potential receptor antagonists for impairing Dm5-HT2B activity.

Dm5-HT2B [3] = biological target: T1, Dm5-HT2B; parameters: method as in Gasque et al. (2013); conditions: Dm5-HT2B in HEK 293T cells, individual cells; ref Gasque et al. (2013); cited from earlier work
D. melanogaster larvae = tested on: D. melanogaster larvae; parameters: method as in Gasque et al., 2013; conditions: ref Gasque et al., 2013; cited from earlier work
[4] = biological target: tyramine receptor TyrR (CG7431); parameters: method as in Arakawa et al., 1990; conditions: ref Arakawa et al., 1990; cited from earlier work
[5] = tested on: β-adrenergic-like octopamine receptor Octβ3R (CG42244); parameters: method as in Maqueira et al., 2005; conditions: only 10^-5 M tested; ref Maqueira et al., 2005; cited from earlier work
[6] = tested on: non-transfected HEK 293 cells; experiment: Ca2+ fluorimetry (Fluo-4) in non-transfected HEK 293 cells (control); format: cell-based; conditions: for change in Ca2+-dependent Fluo-4 fluorescence: biogenic amines 1 μM each
Experimental: as §1

[7] = background of 10^-7 M serotonin, Dm5-HT2B-expressing HEK 293 cells

For COc1ccc2[nH]cc(CCN)c2c1 [5-methoxytryptamine], the EC50 (Dm5-HT2B [1]; EC50 (half-maximal activation of Dm5-HT2B), Dm5-HT2B-expressing HEK 293 cells, Fluo-4 fluorescence, concentrations 10^-9 M to 10^-4 M) is given as 1050 nM and ~1000 nM, the EC50 (Am5-HT2A) is given as 70 nM and the EC50 (Am5-HT2B) is given as 60.4 nM. For the same compound, the EC50 (Cv5-HT2A) was 67 nM.
For CCCN(CCC)C1CCc2cccc(O)c2C1 (stereo not drawn) [8-OH-DPAT, 8-Hydroxy-2-(di-n-propylamino)tetralin], the EC50 (Dm5-HT2B [1]) is listed as ~650000 nM, the EC50 (Am5-HT2A) is listed as 55900 nM and the EC50 (Am5-HT2B) is listed as 560 nM. The EC50 (Cv5-HT2A) was 62000 nM.
In the case of CN1CCN(C2=Nc3cc(Cl)ccc3Nc3ccccc32)CC1 [Clozapine, clozapine], the “Ca2+-dependent fluorescence blocked to” value (Am5-HT2B; Am5-HT2B) is given as 5%.
For CN1CCC(=C2c3ccccc3C=Cc3ccccc32)CC1 [Cyproheptadine, cyproheptadine], the “serotonin-induced Ca2+-dependent fluorescence reduced by” value (Am5-HT2A; Am5-HT2A) is given as 36%, the “Ca2+-dependent fluorescence blocked to” value (Am5-HT2B; Am5-HT2B) is given as 23% and the “receptor activity reduced by” value (Rp5-HT2B) is given as ≥ 50%.
For O=C(c1ccc(F)cc1)C1CCN(CCn2c(=O)[nH]c3ccccc3c2=O)CC1 [Ketanserin, ketanserin], the “effect on serotonin-stimulated Dm5-HT2B-expressing cells” value (Dm5-HT2B [2]) is listed as “did not observe any effect; also recorded: completely lacked inhibitory potential”, the IC50 (Dm5-HT2B [2]; [7]) is listed as “no effect” and the “receptor activity reduced by” value (Rp5-HT2B) is listed as ≥ 50%.
In the case of CC[C@@H](CO)NC(=O)[C@@H]1C=C2c3cccc4c3c(cn4C)C[C@H]2N(C)C1 [Methysergide, methysergide], the “effect on serotonin-stimulated Dm5-HT2B-expressing cells” value (Dm5-HT2B [2]) is reported as “did not observe any effect; also recorded: completely lacked inhibitory potential” and the IC50 (Dm5-HT2B [2]; [7]) is reported as “no effect”.
CSc1ccc2c(c1)C(N1CCN(C)CC1)Cc1ccccc1S2 (stereo not drawn) [Metitepine, metitepine] showed an IC50 (Dm5-HT2B [2]; IC50, background of 10^-7 M serotonin, Dm5-HT2B-expressing HEK 293 cells) of 3.56e-06 M, an IC50 (Dm5-HT2B [2]; Log IC50 ± SD, logarithm of the IC50 (M), background of 10^-7 M serotonin) of 3.55e-06 M and a Maximal inhibition (Dm5-HT2B [2]) of 35%. For the same compound, the “inhibition range (IC50)” value (Am5-HT2A; Am5-HT2A) was “micromolar range”, the “serotonin-induced Ca2+-dependent fluorescence reduced by” value (Am5-HT2A; Am5-HT2A) was 39% and the antagonist activity (Am5-HT2B; Am5-HT2B) was “did not have any activity at all”. For the same compound, the IC50 (Cv5-HT2A; Cv5-HT2A) was 1200 nM, the “serotonin-induced Ca2+ signals reduced to % of control measurements” value (Cv5-HT2A; Cv5-HT2A) was 15% and the IC50 (Dm5-HT2B [3]) was 2000 nM. For the same compound, the “effect on food intake” value (D. melanogaster larvae) was “potent anorectic drug”.
For CCN(CC)CCNC(=O)c1cc(Cl)c(N)cc1OC [Metoclopramide, metoclopramide], the IC50 (Dm5-HT2B [2]; background of 10^-7 M serotonin, Dm5-HT2B-expressing HEK 293 cells, read-out: IC50) was 1.59e-08 M, the IC50 (Dm5-HT2B [2]; logarithm of the IC50 (M), background of 10^-7 M serotonin, read-out: Log IC50 ± SD (converted)) was 1.58e-08 M and the Maximal inhibition (Dm5-HT2B [2]) was 60%. The “serotonin-evoked Ca2+ response reduced to % of control measurements without antagonist” value (Dm5-HT2B [2]; residual signal at maximal inhibition) was 40%, the Ki [4] was 4600 nM and the effect on receptor [5] was “block”.
In the case of CN1CCN2c3ccccc3Cc3ccccc3C2C1 (stereo not drawn) [Mianserin, mianserin], the “serotonin-induced Ca2+-dependent fluorescence reduced by” value (Am5-HT2A; Am5-HT2A) is given as 49%, the “Ca2+-dependent fluorescence blocked to” value (Am5-HT2B; Am5-HT2B) is given as 24% and the “receptor activity reduced by” value (Rp5-HT2B) is given as ≥ 50%.
With COc1cc2nc(N3CCN(C(=O)c4ccco4)CC3)nc(N)c2cc1OC [Prazosin, prazosin] the “effect on serotonin-stimulated Dm5-HT2B-expressing cells” value (Dm5-HT2B [2]) was “caused a reduction of the cellular response; also recorded: the responses did not saturate”, the IC50 (Dm5-HT2B [2]; [7]) was “no saturation” and the Maximal inhibition (Dm5-HT2B [2]) was 50%.
With Cc1cc2c(cc1Cl)N(C(=O)Nc1ccc(Oc3cccnc3C)nc1)CC2 [SB 242084] the “effect on serotonin-stimulated Dm5-HT2B-expressing cells” value (Dm5-HT2B [2]) was “did not observe any effect; also recorded: completely lacked inhibitory potential” and the IC50 (Dm5-HT2B [2]; [7]) was “no effect”.
With O=C(CCCN1CCC2(CC1)C(=O)NCN2c1ccccc1)c1ccc(F)cc1 [Spiperone, spiperone] the “effect on serotonin-stimulated Dm5-HT2B-expressing cells” value (Dm5-HT2B [2]) was “caused a reduction of the cellular response; also recorded: the responses did not saturate”, the IC50 (Dm5-HT2B [2]; [7]) was “no saturation” and the Maximal inhibition (Dm5-HT2B [2]) was 25%.
In the case of NCCc1ccc(O)c(O)c1 [dopamine], the “change in Ca2+-dependent Fluo-4 fluorescence” value (shortened to “change”) (Dm5-HT2B [1]; Dm5-HT2B-expressing cells) is reported as “Neither dopamine, octopamine nor tyramine evoked responses” and the “change” value [6] is reported as “Neither dopamine, octopamine nor tyramine evoked responses”.
With NCCc1c[nH]cn1 [histamine] the “change” value (Dm5-HT2B [1]; Dm5-HT2B-expressing cells) was “caused a rise in Ca^2+-dependent Fluo-4 fluorescence” and the “change” value [6] was “caused a rise in Ca^2+-dependent Fluo-4 fluorescence”.
For NCC(O)c1ccc(O)cc1 (stereo not drawn) [octopamine], the “change” value (Dm5-HT2B [1]; Dm5-HT2B-expressing cells) was “Neither dopamine, octopamine nor tyramine evoked responses” and the “change” value [6] was “Neither dopamine, octopamine nor tyramine evoked responses”.
In the case of NCCc1c[nH]c2ccc(O)cc12 [serotonin, 5-hydroxytryptamine], the “concentration at which the concentration-response curve saturated” value (Dm5-HT2B [1]; Dm5-HT2B-expressing cells) is reported as 30 µM, the “change” value (Dm5-HT2B [1]; Dm5-HT2B-expressing cells) is reported as “increase in the fluorescence signal” and the “fluorescence signal at the highest ligand concentration” value ([6]; 10^-4 M) is reported as “slight increase in the fluorescence signal”. The “change” value [6] was “not in non-transfected cells”, the EC50 (Am5-HT2A) was 25.7 nM and the EC50 (Am5-HT2B) was 32.5 nM. The EC50 (Cv5-HT2A) was 24 nM and the EC50 (Rp5-HT2B; Rp5-HT2B in CHOK1-aeq cells) was 201 nM.
In the case of NCCc1ccc(O)cc1 [tyramine], the “change” value (Dm5-HT2B [1]; Dm5-HT2B-expressing cells) is reported as “Neither dopamine, octopamine nor tyramine evoked responses” and the “change” value [6] is reported as “Neither dopamine, octopamine nor tyramine evoked responses”.
